Results: paper PMC5746060, “General and Modular Strategy for Designing Potent, Selective, and Pharmacologically Compliant Inhibitors of Rhomboid Proteases” (Cell Chemical Biology, 2017)
Starred links: 1 amine or outer side, 2 acyl side, 3 side chain; linkers in the order of their positions; H or OH if unused. Non-standard residues stand in square brackets, D forms with d. Residues, ends and D or L forms follow the SMILES beside them. *: point of attachment. NH(4-phenylbutyl) = c1ccc(CCCCN*)cc1; X1 = C[C@H](N[*:1])C(=O)C(=O)[*:2]; NHPhenethyl = c1ccc(CCN*)cc1

Legend:
[1] = target: T1, endogenous GlpG (Escherichia coli, UniProt P09391); assay: inhibition of endogenous GlpG in live E. coli (LacYTM2 substrate cleavage, western blot); type: cell-based; conditions: live E. coli NR698, substrate MBP-FLAG-LacYTM2-Trx; read-out: IC50 In Vivo (GlpG)
T1 construct: E. coli expressing endogenous levels of GlpG; endogenous in cells; host or cells: E. coli K12 NR698 (permeabilised outer membrane)
Experimental: The substrate MBP-FLAG-LacYTM2-Trx ([Strisovsky et al., 2009]) was expressed in wild-type E. coli NR698 with genetically permeabilized outer membrane ([Ruiz et al., 2005]) in the presence of increasing concentrations of inhibitors as described in STAR Methods. Substrate cleavage was measured in cell lysates by immunoblotting for FLAG and quantified using near-infrared fluorescence. The reported in vivo IC50 values are best-fit means with SD representative of 2–3 measurements. DMSO, dimethylsulfoxide vehicle control; KO, E. coli glpG::tet. […] The substrate AmyESP-MBP-FLAG-LacYTM2-Trx-HA was expressed in Bacillus subtilis 168 (ydcA::neo, xdkE::AmyESP-MBP-LacYTM2-Trx(erm, lin)) (BS87) in the presence of increasing concentrations of inhibitors as described in STAR Methods. Substrate cleavage was detected in cell lysates by immunoblotting for FLAG and detection by near-infrared fluorescence. […] This treatment was necessary because the specific cleavage product could not be resolved sufficiently well from the non-specific bands to be integrated separately. DMSO, dimethylsulfoxide vehicle control; YqgP KO, Bacillus subtilis 168 (ydcA::neo, yqgP::tet, xdkE::AmyESP-MBP-LacYTM2-Trx(erm, lin)) (BS88).

[2] = target: T2, Escherichia coli rhomboid GlpG (Escherichia coli, UniProt P09391); assay: in vitro GlpG inhibition assay with fluorogenic transmembrane peptide substrate (apparent IC50); type: biochemical
T2 construct: made in house; host or cells: E. coli C41(DE3)
Text: To gain insight into these preferences and their possible interactions, we have generated tetra- and pentapeptidyl chloromethylketones (CMK or cmk henceforth) harboring amino acids preferred in positions P5 to P1 by the Escherichia coli rhomboid GlpG (GlpG henceforth), using the sequence background of the Providencia TatA ([Stevenson et al., 2007]), represented by the parent compound Ac-IATA-cmk. We measured the inhibitory properties of this series of compounds using a newly developed in vitro assay employing a fluorogenic transmembrane peptide substrate ([Ticha et al., 2017]) that faithfully represents a native rhomboid substrate.
Figure 1 The Potency of Substrate-Derived Inhibitors Can be Improved by Modifying the Amino acid Sequence of the P5 to P1 Region (A) The parent inhibitor Ac-IATA-cmk was modified by introducing strongly preferred amino acids ([Zoll et al., 2014]) into the P4, P3, P2, and P5 positions to yield the listed compounds. Their apparent IC50 values were measured with 1 hr preincubation using 10 μM fluorogenic substrate KSp35 and 0.05% (w/v) DDM. The reported values are best-fit means with SD representative of 2–3 measurements. (B) The sequence-optimized peptidyl chloromethylketones were soaked into the native crystals of GlpG and structures of the complexes were solved by X-ray diffraction (for statistics, see Table S1). […] Note that in the Ac-RVRHA-cmk structure (right), the side chain of the Arg residue in the P5 position of the inhibitor has not been modeled due to poor or missing electron density peaks. (C) Interactions of RVRHA-cmk with GlpG were analyzed by Ligplot+ ([Laskowski and Swindells, 2011]). Ligands are shown as thick sticks with carbons in green, proteins as thin sticks with carbons in gray, hydrogen bonds as yellow dashed lines, and amino acids involved in van der Waals contacts are highlighted as transparent surfaces. The inhibitor forms covalent bonds with S201 and H254 via the chloromethylketone warhead, and it hydrogen bonds with the backbone of residues 196–198 from the L3 loop and residues 248–250 from the L5 loop. van der Waals contacts with the inhibitor are formed by the residues from the L3 loop of GlpG, by S193 and Q189 from TMD3, and by F146 and M120 from the L1 loop that pack against the Val side chain of the P4 position of the inhibitor, as observed previously ([Zoll et al., 2014]). (D) The conformations of peptide inhibitors bound to the active site of GlpG were compared by performing structural alignment of the complexes of VRHAcmk (PDB: 5MT7), RVRHAcmk (PDB: 5MT8), IATAcmk (PDB: 4QO2), and VRMAcho (PDB: 5F5B) in PyMOL ([Schrodinger, 2012]). […] The backbone of the ligands in all complexes has virtually identical conformation with the exception of the distortion of the oxyanion by the chloromethylketone, and the biggest differences are found in the conformation of the P2 side chain, which is not surprising, because almost any side chain can be accommodated in this position ([Zoll et al., 2014]). TEXT PRINTED IN THE PICTURE: (A) AcIATAcmk: IC50 (μM): 213 | (A) AcVATAcmk: IC50 (μM): 450 | (A) AcIAHAcmk: IC50 (μM): 200 | (A) AcIRTAcmk: IC50 (μM): 84 | (A) AcVRHAcmk: IC50 (μM): 27 | (A) AcRVRHAcmk: IC50 (μM): 8
Figure 2 A Screen of Electrophilic Warheads for the Inhibition of Rhomboid Proteases The optimized parent sequence Ac-RVRHA was linked to electrophilic warheads commonly used for targeting serine proteases (reviewed in [Hedstrom, 2002], [Walker and Lynas, 2001]). The apparent IC50 values of the compounds were measured in 0.05% DDM using 10 μM substrate KSp35 ([Ticha et al., 2017]) with 1 hr preincubation. Given are the mean values of 2–3 measurements. […]

T1 sequence (P09391 whole entry): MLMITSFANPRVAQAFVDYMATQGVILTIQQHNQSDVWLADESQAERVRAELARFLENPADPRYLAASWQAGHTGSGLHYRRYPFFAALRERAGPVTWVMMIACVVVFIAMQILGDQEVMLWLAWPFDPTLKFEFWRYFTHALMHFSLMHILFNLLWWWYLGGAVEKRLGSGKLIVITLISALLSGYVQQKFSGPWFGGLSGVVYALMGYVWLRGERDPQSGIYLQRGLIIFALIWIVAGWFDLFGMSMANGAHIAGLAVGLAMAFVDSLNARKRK
T2 sequence (P09391 whole entry): as above

Structure (SMILES) | IC50 [1] [nM] | IC50 ([2]; 1 hr preincubation, 10 μM fluorogenic substrate KSp35, 0.05% (w/v) DDM) [nM] | fold lower IC50 than the parent compound 1 ([2]; ratio of apparent IC50 values)
CC(=O)N[C@@H](CCCNC(=N)N)C(=O)N[C@H](C(=O)N[C@@H](CCCNC(=N)N)C(=O)N[C@@H](Cc1c[nH]cn1)C(=O)N[C@@H](C)C(=O)C(=O)NCCc1ccccc1)C(C)C [compound 9, Ac-RVRHA-CONH-phenylethyl] (Ac-RVRH[X1]-NHPhenethyl) | 8.8 ± 0.4 | 440 | –
CC(=O)N[C@@H](CCCNC(=N)N)C(=O)N[C@H](C(=O)N[C@@H](CCCNC(=N)N)C(=O)N[C@@H](Cc1c[nH]cn1)C(=O)N[C@@H](C)C(=O)C(=O)NCCCCc1ccccc1)C(C)C [compound 11, Ac-RVRHA-CONH-phenylbutyl] (Ac-RVRH[X1]-{NH(4-phenylbutyl)}) | 2.7 ± 0.1 | – | about 1,000 fold
